Laboratory results reported in patent publication US20260265199A1, “CRYSTALLINE FORMS OF (R)-2-AMINO-5-(4-(2-(3,5-DIFLUOROPHENYL)-2-HYDROXYACETAMIDO)-2-METHYLPHENYL)-N-ISOPROPYLNICOTINAMIDE AND METHODS FOR USING THE SAME” (HIBERCELL, INC., priority 2023, published 2026).
“Also recorded” adds a separate entry of the source. Read-outs that look alike come from different tables or passages of the source.

Experiments:
Type in all cases: physicochemical
[1] = Relative humidity stressing of Form D; details: ambient
[2] = Dynamic vapor sorption (5% to 95% RH, Example 26 method)
Method: Automated vapor sorption (VS) data were collected on a Surface Measurement System DVS Intrinsic instrument, or a VTI SGA-100 instrument. Samples were not dried prior to analysis. Sorption and desorption data were collected over a range from 5% to 95% RH at 10% RH increments under a nitrogen purge. The equilibrium criterion used for analysis was less than 0.0100% weight change in 5 minutes with a maximum equilibration time of 3 hours. Data were not corrected for the initial moisture content of the samples.

[3] = Solubility study of Form A of the compound of formula (I) in solvents (aliquot addition, visual); details: thermodynamic from solid, room temperature, read-out: Approximate Solubility
Method: A solubility study of Form A in various solvent systems was conducted according to the following protocol: aliquots of the test solvent systems were added to weighed samples of Form A, prepared according to Example 27, at room temperature. The resulting mixtures were sonicated between solvent additions to facilitate dissolution. Complete dissolution of the test material was determined visually. The solubility was estimated based on the total solvent used to provide complete dissolution.

[4] = Water activity study of Form A of the compound of formula (I); details: for Result (XRPD of solids): ambient; for Solid form (XRPD) after storage in solvent mixture: ambient conditions
Method: The water activity study was conducted using the following protocol: solutions were prepared by adding a sufficient amount of Form A, prepared according to Example 27, to a given solvent mixture such that excess solids were present. The mixture was then agitated for a predetermined period of time (Table 31) in a sealed vial under ambient conditions. After agitation, the solids were isolated for analysis and characterized using XRPD.

Structure (SMILES): Cc1cc(NC(=O)[C@H](O)c2cc(F)cc(F)c2)ccc1-c1cnc(N)c(C(=O)NC(C)C)c1 [Form D, (R)-2-amino-5-(4-(2-(3,5-difluorophenyl)-2-hydroxyacetamido)-2-methylphenyl)-N-isopropylnicotinamide]
- Observation ([1]; 75% RH, 4 days): Free flowing
- Result (XRPD form) ([1]; 75% RH, 4 days): remained physically stable; also recorded: Form D
- Observation ([1]; 97% RH, 20 days): Free flowing
- Result (XRPD form) ([1]; 97% RH, 20 days): no phase changed had occurred; also recorded: remained physically stable; also recorded: Form D
- Solid form recovered from the DVS experiment (XRPD) [2]: remained as Form D
- Weight gain and loss through the sorption/desorption cycle (DVS) ([2]; 5 to 95% RH): approximately 1.9%
- Hygroscopicity (DVS) ([2]; from 5 to 95% RH): limited hygroscopicity

Structure (SMILES): Cc1cc(NC(=O)[C@H](O)c2cc(F)cc(F)c2)ccc1-c1cnc(N)c(C(=O)NC(C)C)c1 [Form A of the compound of formula (I), (R)-2-amino-5-(4-(2-(3,5-difluorophenyl)-2-hydroxyacetamido)-2-methylphenyl)-N-isopropylnicotinamide]
- solubility ([3]; organic solvent or mixture, acetone): > 115 mg/mL
- solubility ([3]; organic solvent or mixture, acetonitrile): 12 mg/mL
- solubility ([3]; organic solvent or mixture, chloroform): < 3 mg/mL
- solubility ([3]; organic solvent or mixture, diethyl ether): < 2 mg/mL
- solubility ([3]; organic solvent or mixture, ethanol): 49 mg/mL
- solubility ([3]; organic solvent or mixture, ethyl acetate): 26 mg/mL
- solubility ([3]; organic solvent or mixture, heptane): < 3 mg/mL
- solubility ([3]; organic solvent or mixture, isopropyl alcohol): 14 mg/mL
- solubility ([3]; organic solvent or mixture, methanol): 103 mg/mL
- solubility ([3]; organic solvent or mixture, tetrahydrofuran): > 150 mg/mL
- solubility ([3]; organic solvent or mixture, toluene): < 4 mg/mL
- solubility ([3]; water): < 3 mg/mL
- Result (XRPD of solids) ([4]; IPA/water 90:10 v/v, 0.67 aw, 27 days): Form H
- Result (XRPD of solids) ([4]; MeCN/water 92:8 v/v, 0.82 aw, 4 days): Form C
- Solid form (XRPD) after storage in solvent mixture ([4]; acetonitrile/water (92:8 v/v), four days): Form C
- Solid form (XRPD) after storage in solvent mixture ([4]; isopropanol/water (90:10 v/v), 27 days): Form H
- Solid form (XRPD) after storage in solvent mixture ([4]; isopropanol/water (94:6 v/v), four days): mixture of Form A and Form H
- Result (XRPD of solids) ([4]; water/acetone 80:20 v/v, 0.96 aw, 4 days): Form A*
- Solid form (XRPD) after storage in solvent mixture ([4]; water/acetone (80:20 v/v), four days): Form A
